Assay: xn = mol fraction of the nth substance listed
Conditions: 101 kPa, Liquid; for viscosity: Capillary tube (Ostwald / Ubbelohde) method

CN(C)C=O [dimethylformamide] + O
Conditions	mass density [kg/m3]	viscosity [mPa·s]
323.15 K, x1 = 0.02	986	0.648
323.15 K, x1 = 0.04	984.49	0.729
323.15 K, x1 = 0.06	983.26	0.812
323.15 K, x1 = 0.08	982.19	0.892
323.15 K, x1 = 0.1	981.17	0.965
323.15 K, x1 = 0.2	975.89	1.228
323.15 K, x1 = 0.3	968.99	1.3
323.15 K, x1 = 0.398	960.81	1.228
323.15 K, x1 = 0.498	952.92	1.087
323.15 K, x1 = 0.599	945.11	0.961
323.15 K, x1 = 0.697	938.03	0.831
323.15 K, x1 = 0.798	931.73	0.74
323.15 K, x1 = 1	920.71	0.617
328.15 K, x1 = 0.02	983.51	–
328.15 K, x1 = 0.04	981.71	–
328.15 K, x1 = 0.06	980.24	–
328.15 K, x1 = 0.08	978.94	–
328.15 K, x1 = 0.1	977.71	–
328.15 K, x1 = 0.2	971.68	–
328.15 K, x1 = 0.3	964.38	–
328.15 K, x1 = 0.398	956.04	–
328.15 K, x1 = 0.498	948.09	–
328.15 K, x1 = 0.599	940.27	–
328.15 K, x1 = 0.697	933.2	–
328.15 K, x1 = 0.798	926.91	–
328.15 K, x1 = 1	915.92	–
333.15 K, x1 = 0.02	980.84	0.548
333.15 K, x1 = 0.04	978.81	0.613
333.15 K, x1 = 0.06	977.1	0.675
333.15 K, x1 = 0.08	975.59	0.736
333.15 K, x1 = 0.1	974.16	0.792
333.15 K, x1 = 0.2	967.4	0.992
333.15 K, x1 = 0.3	959.73	1.046
333.15 K, x1 = 0.398	951.22	1.001
333.15 K, x1 = 0.498	943.22	0.905
333.15 K, x1 = 0.599	935.4	0.81
333.15 K, x1 = 0.697	928.34	0.722
333.15 K, x1 = 0.798	922.08	0.654
333.15 K, x1 = 1	911.13	0.559
338.15 K, x1 = 0.02	978.04	–
338.15 K, x1 = 0.04	975.81	–
338.15 K, x1 = 0.06	973.86	–
338.15 K, x1 = 0.08	972.14	–
338.15 K, x1 = 0.1	970.51	–
338.15 K, x1 = 0.2	963.07	–
338.15 K, x1 = 0.3	955.03	–
338.15 K, x1 = 0.398	946.36	–
338.15 K, x1 = 0.498	938.32	–
338.15 K, x1 = 0.599	930.49	–
338.15 K, x1 = 0.697	923.46	–
338.15 K, x1 = 0.798	917.22	–
338.15 K, x1 = 1	906.32	–
343.15 K, x1 = 0.02	975.12	0.474
343.15 K, x1 = 0.04	972.66	0.526
343.15 K, x1 = 0.06	970.5	0.575
343.15 K, x1 = 0.08	968.59	0.624
343.15 K, x1 = 0.1	966.78	0.666
343.15 K, x1 = 0.2	958.67	0.821
343.15 K, x1 = 0.3	950.29	0.866
343.15 K, x1 = 0.398	941.46	0.837
343.15 K, x1 = 0.498	933.38	0.764
343.15 K, x1 = 0.599	925.56	0.701
343.15 K, x1 = 0.697	918.55	0.636
343.15 K, x1 = 0.798	912.34	0.583
343.15 K, x1 = 1	901.51	0.51
348.15 K, x1 = 0.02	972.14	–
348.15 K, x1 = 0.04	969.42	–
348.15 K, x1 = 0.06	967.1	–
348.15 K, x1 = 0.08	964.94	–
348.15 K, x1 = 0.1	962.96	–
348.15 K, x1 = 0.2	954.21	–
348.15 K, x1 = 0.3	945.49	–
348.15 K, x1 = 0.398	936.52	–
348.15 K, x1 = 0.498	928.4	–
348.15 K, x1 = 0.599	920.59	–
348.15 K, x1 = 0.697	913.61	–
348.15 K, x1 = 0.798	907.45	–
348.15 K, x1 = 1	896.69	–
353.15 K, x1 = 0.02	968.96	0.417
353.15 K, x1 = 0.04	966.06	0.459
353.15 K, x1 = 0.06	963.53	0.499
353.15 K, x1 = 0.08	961.2	0.539
353.15 K, x1 = 0.1	959.05	0.572
353.15 K, x1 = 0.2	949.69	0.694
353.15 K, x1 = 0.3	940.64	0.727
353.15 K, x1 = 0.398	931.54	0.707
353.15 K, x1 = 0.498	923.39	0.659
353.15 K, x1 = 0.599	915.59	0.614
353.15 K, x1 = 0.697	908.64	0.563
353.15 K, x1 = 0.798	902.52	0.525
353.15 K, x1 = 1	891.86	0.47

— the NIST ThermoML archive (doi:10.1021/je700671t)
